Where “and” joins values, the source holds several entries; their conditions need not be identical. Equal entries are not always repeated. Numbers after ± are expanded uncertainties.
Settings: for mass density: buoyancy; for vapor or sublimation pressure: Closed cell (Static) method

O=C=O [carbon dioxide]
Fluid (supercritical or subcritical phases)
Settings	mass density
233.06 K, 500.05 kPa	12.0703 ± 0.033 kg/m3
233.06 K, 799.98 kPa	20.1488 ± 0.034 kg/m3
233.07 K, 105.91 kPa	2.43371 ± 0.031 kg/m3 and 2.42701 ± 0.031 kg/m3
233.07 K, 300.07 kPa	7.05798 ± 0.032 kg/m3
243 K, 1000.7 kPa	24.4253 ± 0.035 kg/m3
243.01 K, 300.03 kPa	6.73594 ± 0.031 kg/m3
243.01 K, 500.04 kPa	11.476 ± 0.032 kg/m3
243.01 K, 800 kPa	19.0248 ± 0.033 kg/m3
243.01 K, 1200.7 kPa	30.1422 ± 0.036 kg/m3
243.02 K, 100.02 kPa	2.20055 ± 0.03 kg/m3
253.21 K, 500.06 kPa	10.9367 ± 0.031 kg/m3
253.21 K, 1500.7 kPa	36.7146 ± 0.037 kg/m3
253.22 K, 100.07 kPa	2.116 ± 0.03 kg/m3
253.22 K, 100.08 kPa	2.11111 ± 0.03 kg/m3
253.22 K, 1000.1 kPa	23.0281 ± 0.033 kg/m3
253.22 K, 1800.9 kPa	45.9785 ± 0.04 kg/m3
263.31 K, 1000.6 kPa	21.8592 ± 0.032 kg/m3
263.32 K, 500.07 kPa	10.4541 ± 0.03 kg/m3
263.32 K, 1500.1 kPa	34.4562 ± 0.035 kg/m3
263.32 K, 2000.2 kPa	48.7144 ± 0.039 kg/m3
263.32 K, 2200.2 kPa	55.0401 ± 0.042 kg/m3
263.32 K, 2500 kPa	65.4007 ± 0.046 kg/m3
263.33 K, 100.03 kPa	2.02538 ± 0.029 kg/m3
273.56 K, 100.01 kPa	1.94808 ± 0.028 kg/m3
273.56 K, 100.02 kPa	1.95635 ± 0.028 kg/m3
273.56 K, 500.01 kPa	10.0139 ± 0.029 kg/m3
273.56 K, 1000 kPa	20.7952 ± 0.032 kg/m3
273.56 K, 2000.3 kPa	45.5031 ± 0.035 kg/m3
273.56 K, 2500.6 kPa	60.111 ± 0.042 kg/m3
273.56 K, 3000 kPa	77.0441 ± 0.049 kg/m3
273.56 K, 3200.5 kPa	84.7746 ± 0.053 kg/m3
273.56 K, 3401.2 kPa	93.2811 ± 0.055 kg/m3
283.51 K, 3000.3 kPa	70.8325 ± 0.045 kg/m3
283.51 K, 4000.8 kPa	107.963 ± 0.071 kg/m3
283.52 K, 100.06 kPa	1.8788 ± 0.028 kg/m3
283.52 K, 999.98 kPa	19.8874 ± 0.03 kg/m3
283.52 K, 2000 kPa	42.914 ± 0.034 kg/m3
283.52 K, 4200.9 kPa	117.472 ± 0.073 kg/m3
293.08 K, 100.15 kPa	1.81243 ± 0.028 kg/m3
293.08 K, 100.16 kPa	1.8183 ± 0.028 kg/m3
293.08 K, 2000 kPa	40.7832 ± 0.032 kg/m3
293.08 K, 3000.4 kPa	66.2045 ± 0.038 kg/m3
293.08 K, 4000.2 kPa	97.5691 ± 0.054 kg/m3
293.08 K, 5000.2 kPa	140.798 ± 0.08 kg/m3
293.08 K, 5501.3 kPa	173.325 ± 0.14 kg/m3
293.09 K, 1000.2 kPa	19.1053 ± 0.029 kg/m3

Liquid
Settings	mass density	vapor or sublimation pressure
233.07 K	1116.54 ± 0.35 kg/m3 and 1116.44 ± 0.35 kg/m3	1000.7 ± 2.4 kPa and 1000.8 ± 2.4 kPa
243.01 K	1076.52 ± 0.35 kg/m3	1420.4 ± 3 kPa and 1420.5 ± 3 kPa
253.22 K	1031.59 ± 0.35 kg/m3 and 1031.49 ± 0.35 kg/m3	1974.2 ± 3.9 kPa and 1974.5 ± 3.9 kPa
263.31 K	981.93 ± 0.35 kg/m3	2661.6 ± 5.1 kPa
263.32 K	981.93 ± 0.35 kg/m3	2661.9 ± 5.1 kPa
273.55 K	924.89 ± 0.36 kg/m3	3522.1 ± 6.6 kPa
273.56 K	924.87 ± 0.36 kg/m3	3522.4 ± 6.6 kPa
283.51 K	858.57 ± 0.39 kg/m3	4543.2 ± 8.4 kPa
283.52 K	858.55 ± 0.39 kg/m3	4543.6 ± 8.4 kPa
293.08 K	774.28 ± 0.41 kg/m3	5720.9 ± 10 kPa
293.09 K	774.23 ± 0.41 kg/m3	5721.4 ± 10 kPa
